These results are taken from BindingDB's records for patent US20240189315 (Boehringer Ingelheim International, 2024).

Each structure is given as a SMILES string. Bounds are passed on as bounds.

A word on the IC50: it is the midpoint of a concentration-inhibition curve.

This assay deals with Cyclic GMP-AMP synthase (Homo sapiens, UniProt Q8N884). Kind of assay: in vitro human biochemical cGAS inhibition.
Cyclic GMP-AMP synthase, sequence (Q8N884 whole entry): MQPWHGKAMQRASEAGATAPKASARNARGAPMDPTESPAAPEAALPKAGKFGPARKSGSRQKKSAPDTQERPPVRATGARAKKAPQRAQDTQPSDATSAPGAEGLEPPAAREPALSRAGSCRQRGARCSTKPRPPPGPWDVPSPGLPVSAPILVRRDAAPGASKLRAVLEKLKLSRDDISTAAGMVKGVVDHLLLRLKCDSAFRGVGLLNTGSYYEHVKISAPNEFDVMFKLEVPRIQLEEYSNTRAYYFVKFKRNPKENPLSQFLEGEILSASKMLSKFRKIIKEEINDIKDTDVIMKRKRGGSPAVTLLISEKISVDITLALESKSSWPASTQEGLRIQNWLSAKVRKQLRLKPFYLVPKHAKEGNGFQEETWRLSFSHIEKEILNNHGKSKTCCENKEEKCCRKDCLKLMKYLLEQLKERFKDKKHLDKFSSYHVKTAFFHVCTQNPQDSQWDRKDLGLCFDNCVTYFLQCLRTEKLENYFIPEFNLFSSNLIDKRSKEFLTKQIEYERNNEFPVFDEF

In turn, `COC(=O)[C@@H]1C[C@H](Oc2ncc(Br)cc2N2CCOC3(COC3)[C@@H]2C)CN1c1nc(C(F)(F)F)nc2c1oc1ccccc12` [US20240189315, Example P02 of PCT/EP2022/062480) (Prodrug of Ex. 1.10 of PCT/EP2022/062480)] gave an IC50 of over 9.95 µM.

The compound `COC(=O)[C@@H]1C[C@H](Oc2ncc(Cl)cc2[C@@]2(F)CCS(=O)(=O)C[C@@H]2C)CN1c1nc(C(F)F)nc2c1oc1ccccc12` [US12043625, Example P02 (prodrug of Ex. 1.13)] had an IC50 of over 9.95 µM. On to `C[C@H]1CN2CC[C@]1(F)c1cc(Cl)cnc1O[C@H]1C[C@@H](C(=O)O)N(C1)c1nc(nc3c1oc1ccccc13)CCCCOC2=O` [US20240189315, Example 35], for which it took 0.027 µM to reach half-maximal inhibition (IC50). Compound `COC(=O)[C@@H]1C[C@H](Oc2ncc(-c3cccnc3OC)cc2N2CCOC3(COC3)[C@@H]2C)CN1c1nc(C(F)(F)F)nc2c1oc1ccccc12` [US20240189315, Example P04 of PCT/EP2022/062480) (Prodrug of Ex. 3.14 of PCT/EP2022/062480)] came in with an IC50 of over 9.95 µM. `COC(=O)[C@@H]1C[C@H](Oc2ncccc2N2CCOC3(COC3)[C@@H]2C)CN1c1nc(C(F)F)nc2c1oc1ccccc12` [US20240189315, Example P01 of PCT/EP2022/062480) (Prodrug of Ex. 4.04 of PCT/EP-2022/062480)] gave a 50% inhibitory concentration (IC50) of over 9.96 µM.
